Patent publication US9060971B2, “Combination pharmaceutical agents as inhibitors of HCV replication” (Enanta Pharmaceuticals, Inc., priority 2010, dated 2015)

What was measured:
[1] = test system: "Huh-luc/neo-ET" HCV replicon; test: In vitro synergy assay, two drug combinations, luciferase, Bliss additivity; type: cell-based; settings: 72 h
Excerpt: The coding sequence of the published HCV replicon was synthesized and subsequently assembled in a modified plasmid pBR322 (Promega, Madison, Wis.) using standard molecular biology techniques. One replicon cell line (“SGR 11-7”) stably expresses HCV replicon RNA which consists of (i) the HCV 5′UTR fused to the first 12 amino acids of the capsid protein, (ii) the neomycin phosphotransferase gene (neo), (iii) the IRES from encephalomyocarditis virus (EMCV), and (iv) HCV NS2 to NS5B genes and the HCV 3′UTR. Another replicon cell line (“Huh-luc/neo-ET”) described by Vrolijk et. al. (Vrolijk et. al. (2003) Journal of Virological Methods 110:201-209, expressly incorporated by reference in its entirety) stably expresses HCV replicon RNA which consists of (i) the HCV 5′UTR fused to the first 12 amino acids of the capsid protein, (ii) the firefly luciferase reporter gene, (iii) the ubiquitin gene, (iv) the neomycin phosphotransferase gene (neo), (v) the IRES from encephalomyocarditis virus (EMCV), and (vi) HCV NS3 to NS5B genes that harbor cell culture adaptive mutations (E1202G, T12801, K1846T) and the HCV 3′UTR.
Since clinical drug resistance often develops in viral infections following single agent therapies, there is a need to assess the additive, antagonistic, or synergistic properties of combination therapies. We used the HCV replicon system to assess the potential use of our NS5A inhibitors in combination therapies with Interferon alpha, cyclosporine analogs and inhibitors targeting other HCV proteins. The acute effects of combinations of drugs were studied in the “Huh-luc/neo-ET” replicon with each chemical agent titrated in an X or Y direction in a 6 point two-fold dilution curve centered around the EC50 of each drug. Briefly, replicon cells were seeded at 7,000 cells per well in 90 ul DMEM (without phenol red, Invitrogen Cat. #31053-036) per well with 10% FCS, 1% non-essential amino acids, 1% of Glutamax and 1% of 100× penicillin/streptomycin and incubated overnight at 37° C., 5% C02, 100% relative humidity. 16-20 h after seeding cells, test compounds previously solubilized and titrated in dimethyl sulfoxide (“DMSO”) from each X plate and Y plate were diluted 1:100 in DMEM (without phenol red, Invitrogen Cat. #31053-036) with 10% FCS, 1% non-essential amino acids, 1% of Glutamax and 1% of 100× penicillin/streptomycin and added directly to the 96-well plate containing cells and growth medium at a 1:10 dilution for a final dilution of compound and DMSO of 1:1000 ([…] final concentration). Drug treated cells were incubated at 37° C., 5% C02, 100% relative humidity for 72 hours before performing a luciferase assay using 100 ul per well BriteLite Plus (Perkin Elmer) according to the manufacturer's instructions. Data analysis utilizes the method published by Prichard and Shipman (Antiviral Research, 1990. 14:181-205). Using this method, the combination data were analyzed for antagonistic, additive, or synergistic combination effects across the entire combination surface created by the diluted compounds in combination.
We used the HCV replicon system to assess the potential use of our NS5A inhibitor in combination therapies with Interferon alpha, cyclosporine analogs or inhibitors targeting other HCV proteins. Several HCV antivirals, including protease inhibitors (ITMN-191, SCH503034, VX-950), a nucleoside analog (such as those described in WO01/90121(A2), U.S. Pat. No. 6,348,587B1, WO01/60315 or WO01/32153), a nonnucleoside NS5B polymerase inhibitor (GSK625433), a cyclosporine analog, as well as Interferon alpha, are tested in combination with Compounds 90, 93 or 95 herein, inhibitors of HCV NS5A. Antivirals were tested at five concentrations each, diluted in DMSO by 2-fold dilutions. The antivirals were tested as monotherapies and in combination with Compounds 90, 93 or 95 (described herein) at various concentration ratios. […]

HCV 1b genotype replicon = test: HCV replicon drug screening assay (quantitative RT-PCR or luciferase), genotype 1b; type: cell-based; settings: Hepatitis C virus; HCV 1b genotype replicon; quantitative RT-PCR or luciferase assay; read-out: Genotype-1b replicon EC50 Range
How it was run: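 Huh-derived subgenomic genotype 1b replicon lines (SGR 11-7, neo; Huh-luc/neo-ET, firefly luciferase with adaptive mutations) grown at 37 °C. EC50 from HCV RNA by TaqMan one-step qRT-PCR normalised to GAPDH RNA. Cytotoxicity measured in parallel by MTS.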

[2] = in combination with Boceprevir (SCH503034)
[3] = in combination with Cyclosporine analog
[4] = in combination with Interferon-alpha
[5] = in combination with Telaprevir (VX-950)

SMILES | Bliss Volume (%) at 95% Confidence Intervals, Antagonism [1, 2] [%] | Bliss Volume (%) at 95% Confidence Intervals, Synergy [1, 2] [%] | Result (combination effect) [1, 2] | Synergy Score [1, 2] [%] | Bliss Volume (%) at 95% Confidence Intervals, Antagonism ([1]; in combination with GSK625433) [%] | Bliss Volume (%) at 95% Confidence Intervals, Synergy ([1]; in combination with GSK625433) [%] | Result (combination effect) ([1]; in combination with GSK625433) | Synergy Score ([1]; in combination with GSK625433) [%] | Bliss Volume (%) at 95% Confidence Intervals, Antagonism ([1]; in combination with ITMN-191) [%] | Bliss Volume (%) at 95% Confidence Intervals, Synergy ([1]; in combination with ITMN-191) [%] | Result (combination effect) ([1]; in combination with ITMN-191) | Synergy Score ([1]; in combination with ITMN-191) [%] | Bliss Volume (%) at 95% Confidence Intervals, Antagonism [1, 4] [%] | Bliss Volume (%) at 95% Confidence Intervals, Synergy [1, 4] [%] | Result (combination effect) [1, 4] | Synergy Score [1, 4] [%] | Bliss Volume (%) at 95% Confidence Intervals, Antagonism ([1]; in combination with R7128) [%] | Bliss Volume (%) at 95% Confidence Intervals, Synergy ([1]; in combination with R7128) [%] | Result (combination effect) ([1]; in combination with R7128) | EC50 (HCV 1b genotype replicon) [nM] | also measured
COC(=O)N[C@H](C(=O)N1CCC[C@H]1c1ncc(-c2ccc(C#Cc3ccc4nc([C@@H]5CCCN5C(=O)[C@@H](NC(=O)OC)C(C)C)[nH]c4c3)cc2)[nH]1)C(C)C [Compound 90] | 0 | 48 | Synergistic | 48 | −1 | 12 | Additive | 11 | −9 | 2 | Additive | −7 | −14 | 6 | Additive | −8 | 0 | 34 | Synergistic | < 1 | Bliss Volume (%) at 95% Confidence Intervals, Antagonism [1, 3]: 0%; Bliss Volume (%) at 95% Confidence Intervals, Synergy [1, 3]: 0%; Result (combination effect) [1, 3]: Additive; Synergy Score [1, 3]: 0%; Synergy Score ([1]; in combination with R7128): 34%; Bliss Volume (%) at 95% Confidence Intervals, Antagonism [1, 5]: −1%; Bliss Volume (%) at 95% Confidence Intervals, Synergy [1, 5]: 0%; Result (combination effect) [1, 5]: Additive; Synergy Score [1, 5]: −1%
COC(=O)N[C@H](C(=O)N1CCC[C@H]1c1nc(-c2ccc(C#Cc3ccc4[nH]c([C@@H]5CC6(CC6)CN5C(=O)[C@@H](NC(=O)OC)C(C)C)nc4c3)cc2)c[nH]1)C(C)C [Compound 93] | 0 | 63 | Synergistic | 63 | 0 | 113 | Synergistic | 113 | 0 | 14 | Additive | 14 | 0 | 38 | Synergistic | 38 | 0 | 14 | Additive | < 1 | Synergy Score ([1]; in combination with R7128): 14%; Bliss Volume (%) at 95% Confidence Intervals, Antagonism [1, 5]: 0%; Bliss Volume (%) at 95% Confidence Intervals, Synergy [1, 5]: 7%; Result (combination effect) [1, 5]: Additive; Synergy Score [1, 5]: 7%
COC(=O)N[C@H](C(=O)N1CC2(CC2)C[C@H]1c1nc(-c2ccc(C#Cc3ccc4[nH]c([C@@H]5CC6(CC6)CN5C(=O)[C@@H](NC(=O)OC)C(C)C)nc4c3)cc2)c[nH]1)C(C)C [Compound 95] | 0 | 44 | Synergistic | 44 | 0 | 0 | Additive | 0 | 0 | 5 | Additive | 5 | −2 | 0 | Additive | −2 | 0 | 28 | Synergistic | < 1 | Synergy Score ([1]; in combination with R7128): 28%; Bliss Volume (%) at 95% Confidence Intervals, Antagonism [1, 5]: 0%; Bliss Volume (%) at 95% Confidence Intervals, Synergy [1, 5]: 5%; Result (combination effect) [1, 5]: Additive; Synergy Score [1, 5]: 5%
COC(=O)N[C@H](C(=O)N1CCC[C@H]1c1nc(-c2ccc(C#Cc3ccc4[nH]c([C@@H]5[C@H]6CC[C@H](C6)N5C(=O)[C@@H](NC(=O)OC)C(C)C)nc4c3)cc2)c[nH]1)C(C)C [Compound 123] |  |  |  |  |  |  |  |  |  |  |  |  |  |  |  |  |  |  |  | < 1 | 
COC(=O)N[C@H](C(=O)N1CCC[C@H]1c1nc(-c2ccc(-c3ccc(-c4ccc5[nH]c([C@@H]6[C@H]7CC[C@H](C7)N6C(=O)[C@@H](NC(=O)OC)C(C)C)nc5c4)cc3)cc2)c[nH]1)C(C)C [Compound 124] |  |  |  |  |  |  |  |  |  |  |  |  |  |  |  |  |  |  |  | < 1 | 
COC(=O)N[C@H](C(=O)N1CCC[C@H]1c1ncc(-c2ccc(C#Cc3ccc4nc([C@@H]5C6CCC(CC6)N5C(=O)[C@@H](NC(=O)OC)C(C)C)[nH]c4c3)cc2)[nH]1)C(C)C [Compound 125] |  |  |  |  |  |  |  |  |  |  |  |  |  |  |  |  |  |  |  | < 1 | 
COC(=O)N[C@H](C(=O)N1[C@@H]2CC[C@@H](C2)[C@H]1c1nc(-c2ccc(C#Cc3ccc4[nH]c([C@@H]5[C@H]6CC[C@H](C6)N5C(=O)[C@@H](NC(=O)OC)C(C)C)nc4c3)cc2)c[nH]1)C(C)C [Compound 126] |  |  |  |  |  |  |  |  |  |  |  |  |  |  |  |  |  |  |  | < 1 | 
COC(=O)N[C@H](C(=O)N1CCC[C@H]1c1nc(-c2ccc3cc(-c4ccc5[nH]c([C@@H]6[C@H]7CC[C@H](C7)N6C(=O)[C@@H](NC(=O)OC)C(C)C)nc5c4)ccc3c2)c[nH]1)C(C)C [Compound 129] |  |  |  |  |  |  |  |  |  |  |  |  |  |  |  |  |  |  |  | < 1 | 
CON=C1C[C@@H](c2nc3cc(C#Cc4ccc(-c5c[nH]c([C@@H]6CCCN6C(=O)[C@@H](NC(=O)OC)C(C)C)n5)cc4)ccc3[nH]2)N(C(=O)[C@@H](NC(=O)OC)C(C)C)C1 [Compound 131] |  |  |  |  |  |  |  |  |  |  |  |  |  |  |  |  |  |  |  | < 1 | 
